The results in this text go back to patent US9040727B2, “Histone deacetylase inhibitor of benzamides and use thereof” (Shanghai Institute of Pharmaceutical Industry, priority 2011, dated 2015).

The target of the first assay is HDAC1 (Homo sapiens (Human), UniProt Q13547). Put plainly: In vitro inhibitory activity towards HDAC1 (HDAC Inhibitor Drug Screening Kit). In kind it is biochemical. The following applies: compound at 1 μM. How it is done: (1) The compounds to be tested were each individually prepared as 10 μM and 1 μM solutions and their inhibitory activities towards HDAC1 at these concentrations were tested.
Sequence of HDAC1 (Q13547 whole entry): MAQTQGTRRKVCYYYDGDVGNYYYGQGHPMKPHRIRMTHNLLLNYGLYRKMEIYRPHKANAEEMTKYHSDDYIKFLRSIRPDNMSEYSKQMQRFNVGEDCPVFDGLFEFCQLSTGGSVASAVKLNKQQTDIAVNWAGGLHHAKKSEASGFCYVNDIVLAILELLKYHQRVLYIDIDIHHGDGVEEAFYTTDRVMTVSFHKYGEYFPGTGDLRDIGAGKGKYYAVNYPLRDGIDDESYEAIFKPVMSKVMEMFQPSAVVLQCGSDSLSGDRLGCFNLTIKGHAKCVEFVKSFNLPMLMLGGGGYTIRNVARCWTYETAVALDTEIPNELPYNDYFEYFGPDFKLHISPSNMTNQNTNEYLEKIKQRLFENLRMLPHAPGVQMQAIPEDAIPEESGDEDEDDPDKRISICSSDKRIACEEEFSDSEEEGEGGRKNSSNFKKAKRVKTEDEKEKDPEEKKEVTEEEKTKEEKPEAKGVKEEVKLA
Each dilution sample was placed in two wells and the enzyme inhibition IC50 of the compound was tested.
For `Nc1ccccc1NC(=O)c1ccc(CNC(=O)c2cc3cc(C(F)(F)F)ccc3[nH]2)cc1` [Compound V-20], the inhibition (usually the change of the read-out against control, counted positive when it falls) at 1 µM came to 39.4%.
The compound `COc1ccc2cc(C(=O)NCc3ccc(C(=O)Nc4cc(F)ccc4N)cc3)ccc2c1` [Compound V-4] displayed an inhibition at 1 µM of 24.7%.
For `Nc1ccc(F)cc1NC(=O)c1ccc(CNC(=O)c2nc3ccccc3[nH]2)cc1` [Compound V-13], the inhibition at 1 µM is 13.4%.
Same read-out and setting: then `Nc1ccccc1NC(=O)c1ccc(CNC(=O)c2cc3ccccc3o2)cc1` [Compound V-8], with 62.2%; and `Nc1ccc(-c2cccs2)cc1NC(=O)c1ccc(CNC(=O)c2cc3ccccc3o2)cc1` [Compound V-10], with 58.9%; and `Nc1ccc(F)cc1NC(=O)c1ccc(CNC(=O)c2cc3ccccc3[nH]2)cc1` [Compound V-7], with 41.4%.
Compound `Nc1ccc(-c2ccccc2)cc1NC(=O)c1ccc(CNC(=O)c2cc3ccccc3o2)cc1` [Compound V-11] displayed an inhibition at 1 µM of 38.1%.
Still for that read-out and setting: then `COc1ccc2cc(C(=O)NCc3ccc(C(=O)Nc4ccccc4N)cc3)ccc2c1` [Compound V-3], with 33.3%; and `Nc1ccccc1NC(=O)c1ccc(CNC(=O)c2ccc3ccccc3c2)cc1` [Compound V-1], with 4.49%.
On the same count and under the same terms, then `CNc1ccc2[nH]c(C(=O)NCc3ccc(C(=O)Nc4ccccc4N)cc3)cc2c1` [Compound V-22], with 36.8%; and `Nc1ccc(F)cc1NC(=O)c1ccc(CNC(=O)c2ccc3ccccc3c2)cc1` [Compound V-2], with 28.8%.
On the same count and under the same terms, then `Nc1ccccc1NC(=O)c1ccc(CNC(=O)c2cc3cc(F)ccc3[nH]2)cc1` [Compound V-18], with 22.1%; and `Nc1ccccc1NC(=O)c1ccc(CNC(=O)c2nc3ccccc3[nH]2)cc1` [Compound V-12], with 8.7%.

The same assay, now with this note: compound at 10 μM.
`Nc1ccccc1NC(=O)c1ccc(CNC(=O)c2cc3cc(C(F)(F)F)ccc3[nH]2)cc1` [Compound V-20] had an inhibition at 10 µM of 72.2%.
For the compound `COc1ccc2cc(C(=O)NCc3ccc(C(=O)Nc4cc(F)ccc4N)cc3)ccc2c1` [Compound V-4], the inhibition at 10 µM came out at 44.8%.
Compound `Nc1ccc(F)cc1NC(=O)c1ccc(CNC(=O)c2nc3ccccc3[nH]2)cc1` [Compound V-13] came in with an inhibition at 10 µM of 23.9%.
The compound `Nc1ccccc1NC(=O)c1ccc(CNC(=O)c2cc3ccccc3o2)cc1` [Compound V-8] showed an inhibition at 10 µM of 79.5%.
For the compound `Nc1ccc(-c2cccs2)cc1NC(=O)c1ccc(CNC(=O)c2cc3ccccc3o2)cc1` [Compound V-10], the inhibition at 10 µM was 75.4%.
On the same count and under the same terms, then `Nc1ccc(F)cc1NC(=O)c1ccc(CNC(=O)c2cc3ccccc3[nH]2)cc1` [Compound V-7], with 53.3%; and `Nc1ccc(-c2ccccc2)cc1NC(=O)c1ccc(CNC(=O)c2cc3ccccc3o2)cc1` [Compound V-11], with 58.5%; and `COc1ccc2cc(C(=O)NCc3ccc(C(=O)Nc4ccccc4N)cc3)ccc2c1` [Compound V-3], with 60%.
With `Nc1ccccc1NC(=O)c1ccc(CNC(=O)c2ccc3ccccc3c2)cc1` [Compound V-1], 10 µM produced 15.2% inhibition.
On the same count and under the same terms, then `CNc1ccc2[nH]c(C(=O)NCc3ccc(C(=O)Nc4ccccc4N)cc3)cc2c1` [Compound V-22], with 59.5%; and `Nc1ccc(F)cc1NC(=O)c1ccc(CNC(=O)c2ccc3ccccc3c2)cc1` [Compound V-2], with 46.9%.
The same measure, in the same setting: then `Nc1ccccc1NC(=O)c1ccc(CNC(=O)c2cc3cc(F)ccc3[nH]2)cc1` [Compound V-18], with 49.5%; and `Nc1ccccc1NC(=O)c1ccc(CNC(=O)c2nc3ccccc3[nH]2)cc1` [Compound V-12], with 28.4%.
